The values below come from US20100113510A1 (priority 2006, published 2010).

Several values for one entry are separate records, joined by “and”; a condition that tells them apart may be missing. Equal values may be shown once. Read-outs that look alike come from different tables or passages of the source. Where only a bound is given, the exact number is not on record here.

The target in this experiment is T1, human muscarinic acetylcholine M3 receptor (M3-ACh) (Homo sapiens, UniProt P20309).
T1 construct: expressed in transfected cells; host or cells: CHO-K1 (Chinese Hamster Ovary) cell membranes
As to the kind of experiment: biochemical. Type of experiment: binding.

The mark [1] stands for this setting: pIC50 (M3 Binding IC50 classes).

T1 sequence (P20309 whole entry): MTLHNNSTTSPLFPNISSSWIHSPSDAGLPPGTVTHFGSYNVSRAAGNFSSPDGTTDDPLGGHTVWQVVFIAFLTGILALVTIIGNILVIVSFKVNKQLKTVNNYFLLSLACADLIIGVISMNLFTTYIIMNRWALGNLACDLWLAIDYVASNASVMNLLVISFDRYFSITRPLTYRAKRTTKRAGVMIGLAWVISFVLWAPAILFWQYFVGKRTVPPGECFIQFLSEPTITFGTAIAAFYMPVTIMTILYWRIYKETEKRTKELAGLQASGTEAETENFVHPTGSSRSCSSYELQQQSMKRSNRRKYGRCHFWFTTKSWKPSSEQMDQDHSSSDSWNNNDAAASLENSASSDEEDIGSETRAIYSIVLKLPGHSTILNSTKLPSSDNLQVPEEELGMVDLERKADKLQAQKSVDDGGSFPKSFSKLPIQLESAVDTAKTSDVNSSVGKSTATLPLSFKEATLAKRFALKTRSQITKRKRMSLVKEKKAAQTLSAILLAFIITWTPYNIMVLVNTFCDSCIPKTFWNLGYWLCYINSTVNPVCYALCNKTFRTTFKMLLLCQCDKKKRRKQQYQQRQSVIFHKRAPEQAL

In general, IC50 refers to the point on the concentration scale where inhibition reaches its midpoint. The compound `C[C@@](C(=O)O[C@H]1C[N+]2(CC(=O)c3cccc(F)c3)CCC1CC2)(c1ccccc1)N1CCCCC1` [Example 7, (3R)-1-[2-(3-Fluorophenyl)-2-oxoethyl]-3-{[(2S)-2-phenyl-2-piperidin-1-ylpropanoyl]oxy}-1-azoniabicyclo[2.2.2]octane bromide] yielded an IC50 under setting [1] of less than 2 nM.

In the case of `COc1cccc(C(=O)C[N+]23CCC(CC2)[C@@H](OC(=O)[C@](C)(c2ccccc2)N2CCCCC2)C3)c1` [Example 8, (3R)-1-[2-(3-Methoxyphenyl)-2-oxoethyl]-3-{[(2S)-2-phenyl-2-piperidin-1-ylpropanoyl]oxy}-1-azoniabicyclo[2.2.2]octane bromide], the IC50 under setting [1] is less than 2 nM.

On to `C[C@@](C(=O)O[C@H]1C[N+]2(CC(=O)c3ccccc3)CCC1CC2)(c1ccccc1)N1CCCCC1` [Example 9, (3R)-l-(2-Oxo-2-phenylethyl)-3-{[(2S)-2-phenyl-2-piperidin-1-ylpropanoyl]oxy}-1-azoniabicyclo[2.2.2]octane bromide], for which the IC50 under setting [1] was less than 2 nM.

For `C[C@@](C(=O)O[C@H]1C[N+]2(CC(=O)Nc3ccc(C#N)cc3)CCC1CC2)(c1ccccc1)N1CCCCC1` [Example 11, (3R)-1-{2-[(4-Cyanophenyl)amino]-2-oxoethyl}-3-{[(2S)-2-phenyl-2-piperidin-1-ylpropanoyl]oxy}-1-azoniabicyclo[2.2.2]octane chloride], the IC50 under setting [1] is 2 to 10 nM.

For the compound `C[C@@](C(=O)O[C@H]1C[N+]2(CC(=O)Nc3ccc4[nH]ncc4c3)CCC1CC2)(c1ccccc1)N1CCCCC1` [Example 12, (3R)-1-[2-(1H-Indazol-5-ylamino)-2-oxoethyl]-3-{[(2S)-2-phenyl-2-piperidin-1-ylpropanoyl]oxy}-1-azoniabicyclo[2.2.2]octane chloride], the IC50 under setting [1] is 2 to 10 nM.

`C[C@@](C(=O)O[C@H]1C[N+]2(CC(=O)Nc3ccc4ncnn4c3)CCC1CC2)(c1ccccc1)N1CCCCC1` [Example 13, (3R)-1-[2-Oxo-2-([1,2,4]triazolo[1,5-a]pyridin-6-ylamino)ethyl]-3-{[(2S)-2-phenyl-2-piperidin-1-ylpropanoyl]oxy}-1-azoniabicyclo[2.2.2]octane chloride] returned an IC50 under setting [1] of less than 2 nM.

In turn, `C[C@@](C(=O)O[C@H]1C[N+]2(CC(=O)NCc3ccccc3)CCC1CC2)(c1ccccc1)N1CCCCC1` [Example 16, (3R)-1-[2-(Benzylamino)-2-oxoethyl]-3-{[(2S)-2-phenyl-2-piperidin-1-ylpropanoyl]oxy}-1-azoniabicyclo[2.2.2]octane chloride] yielded an IC50 under setting [1] of 2 to 10 nM.

In turn, `Cc1ccc(C(=O)C[N+]23CCC(CC2)[C@@H](OC(=O)[C@](C)(c2ccccc2)N2CCCCC2)C3)cc1` [Example 17, (3R)-1-[2-(4-Methylphenyl)-2-oxoethyl]-3-{[(2S)-2-phenyl-2-piperidin-1-ylpropanoyl]oxy}-1-azoniabicyclo[2.2.2]octane bromide] had an IC50 under setting [1] of less than 2 nM.

In the case of `Cc1nc(-c2ccccc2)c(NC(=O)C[N+]23CCC(CC2)[C@@H](OC(=O)[C@](C)(c2ccccc2)N2CCCCC2)C3)s1` [Example 18, (3R)-1-{2-[(2-Methyl-4-phenyl-1,3-thiazol-5-yl)amino]-2-oxoethyl}-3-{[(2S)-2-pheny1-2-piperidin-1-ylpropanoyl]oxy}-1-azoniabicyclo[2.2.2]octane chloride], the 50% inhibitory concentration (IC50) under setting [1] lay in the range of 2 to 10 nM.

`CCOC(=O)Cc1csc(NC(=O)C[N+]23CCC(CC2)[C@@H](OC(=O)[C@](C)(c2ccccc2)N2CCCCC2)C3)n1` [Example 19, (3R)-1-(2-{[4-(2-Ethoxy-2-oxoethyl)-1,3-thiazol-2-yl]amino}-2-oxoethyl)-3-{[(2S)-2-phenyl-2-piperidin-1-ylpropanoyl]oxy}-1-azoniabicyclo[2.2.2]octane chloride]: the IC50 under setting [1] lay within 2 to 10 nM.

`Cn1c(=O)oc2cc(CC[N+]34CCC(CC3)[C@@H](OC(=O)[C@](C)(c3ccccc3)N3CCCCC3)C4)ccc21` [Example 25, (3R)-1-[2-(3-Methyl-2-oxo-2,3-dihydro-1,3-benzoxazol-6-yl)ethyl]-3-{[(2S)-2-phenyl-2-piperidin-1-ylpropanoyl]oxy}-1-azoniabicyclo(2.2.2]octane bromide] registered an IC50 under setting [1] of less than 2 nM.

As to `C[C@@](C(=O)O[C@H]1C[N+]2(CCCS(=O)(=O)c3ccc(C#N)cc3)CCC1CC2)(c1ccccc1)N1CCCCC1` [Example 35, (3R)-1-{3-[(4-Cyanophenyl)sulfonyl]propyl}-3-{[(2S)-2-phenyl-2-piperidin-1-ylpropanoyl]oxy}-1-azoniabicyclo[2.2.2]octane bromide], under setting [1], the IC50 lay within 2 to 10 nM.

`C[C@@](C(=O)O[C@H]1C[N+]2(CC[C@H](O)c3ccccc3)CCC1CC2)(c1ccccc1)N1CCCCC1` [Example 38] came in with an IC50 under setting [1] of less than 2 nM.

`C[C@@](C(=O)O[C@H]1C[N+]2(CC[C@@H](O)c3ccccc3)CCC1CC2)(c1ccccc1)N1CCCCC1` [Example 39] displayed an IC50 under setting [1] of less than 2 nM.

As for `Cc1nc(-c2ccc(OCC[N+]34CCC(CC3)[C@@H](OC(=O)[C@](C)(c3ccccc3)N3CCCCC3)C4)cc2)no1` [Example 43, (3R)-1-{2-[4-(5-Methyl-1,2,4-oxadiazol-3-yl)phenoxy]ethyl}-3-{[(2S)-2-phenyl-2-piperidin-1-ylpropanoyl]oxy}-1-azoniabicyclo[2.2.2]octane bromide], under setting [1], the half-inhibitory concentration (IC50) is 2 to 10 nM.

For `CC(C(=O)O[C@H]1C[N+]2(Cc3nc(-c4ccccc4)no3)CCC1CC2)(c1cccs1)N1CCCCC1` (some centres unmarked) [Example 83], the IC50 under setting [1] is less than 2 nM.

On to `CC(C(=O)O[C@H]1C[N+]2(CC(=O)Nc3ccc(C(F)(F)F)cn3)CCC1CC2)(c1cccs1)N1CCCCC1` (stereo partly drawn) [Example 84, (3R)-1-(2-Oxo-2-{[5-(rifluoromethyl)pyridin-2-yl]amino}ethyl)-3-{[2-piperidin-1-yl-2-(2-thienyl)propanoyl]oxy}-1-azoniabicyclo[2.2.2]octane bromide], for which the IC50 (read-out: pIC50 (M3 Binding IC50 classes) (converted)) is 2 to 10 nM and < 2 nM.
